Test results published in US8188130B1, “Anti-cancer hydantoin compounds and methods” (University of Louisiana at Monroe, priority 2008, dated 2012).
Where no end group is shown, it is not given here.

Key:
[1] = test system: PC-3M prostate cancer cell line; experiment: In vitro metastasis assay (spheroid disaggregation, radial migration); type: cell-based
Description: In vitro metastasis assays were conducted to determine the anti-metastatic effect of various compounds. This assay involves preparation of spheroids approximately […] in diameter of cancer cells cultured on an extracellular matrix. In 24 hours, only metastatic cells disaggregate from the spheroid and start radial migration. Thus, lower measurements of radial migration are indicative of greater effectiveness of the drug/compound. Spheroids were prepared from single cell suspension of prostate cell lines as described before in Gondi, C. S., Lakka, S. S., Yanamandra, N., Olivero, W. C., Dinh, D. H., Gujrati, M., Tung, C. H., Weissleder, R., and Rao, J. S. (2004) Cancer Res 64(12), 4069-4077 and in Thomas, S., Chiriva-Internati, M., and Shah, G. V. (2007) Clin Exp Metastasis 24(5), 363-377 both of which are incorporated herein by reference. 5×10^4/ml cells in RPMI 1640 serum-free medium were placed on 96-well low-attachment tissue culture plates. The plates were rocked on gyrotory shaker in a CO2 incubator at 37° C. for 2 days, at the end of which the spheroids measuring 150-300 μm in diameter (˜4×10^4 cells/spheroid) were formed. A single spheroid was then placed in the center of each well of extracellular-matrix-coated 24-well microplate in […] of serum-free medium. From previous studies, it was determined that 1 hour was an appropriate time for spheroids to begin adhering to an extracellular matrix. Thus, t=0 was set as 1 hour from initial plating, so that if the plate was not disturbed, the spheroids would not move from their location at the time of plating. Spheroids were digitally photographed at t=0, cultured at 37° C. for 48 h and then re-photographed. […] The diameter of the area covered with cells migrated from the spheroids was measured in a microscope calibrated with a stage and ocular micrometer. The radial distance of migration was calculated after subtraction of the mean initial spheroidal diameter at t=0.

PC-3M cells [2] = experiment: MTT assay, cell proliferation; type: cell-based
Description: MTT assays were used to measure effect of the tested drugs on tumor growth. MTT assays were performed on a control group, a calcitonin (CT) stimulated group, a group treated with compound 1 (drug treated), and a group that was both drug treated and CT stimulated. Conditions for the MTT assay were as follows: Exponentially growing cells were plated in a 96-well plate at a density of 8×10^3 cells per well, and cultured for 24 hours in complete growth medium (RPMI 1640 containing 10% fetal bovine, 10 mM HEPES, 4 mM L-glutamine, 100 IU/ml penicillin G and 100 μg/ml streptomycin). The complete growth medium was then replaced with 100 μl of basal incubation medium (RPMI 1640 containing 0.1% BSA, 10 mM HEPES, 4 mM L-glutamine, 100 IU/ml penicillin G and 100 μg/ml streptomycin). The cells were then treated with test compounds (dissolved in basal incubation medium), and the culture was continued at 37° C. under 5% CO2 for 24 hours. The cells were then treated with MTT solution at 37° C. for 4 h, and the color reaction was stopped with the stop solution (10% sodium dodecyl sulfate solution in 0.01 M hydrochloric acid) (100 μl/well). The incubation at 37° C. was continued until the formazan product was completely dissolved. Absorbance of the samples was determined at 595 nm with an ELISA plate reader (Bio-Rad, Hercules, Calif.).

PC-3M cells [3] = experiment: Invasion assay (Matrigel Boyden invasion chambers); type: cell-based; conditions: 24 hours, FIG. 2
Description: Invasion assays were used to identify compounds with antimetastatic activity. Invasion assays were performed on a control group, a calcitonin (CT) stimulated group, a drug treated group and a group that was both drug treated and CT stimulated. The assay employed two-compartmented Boyden invasion chambers sold under the trademark MATRIGEL. The assay conditions were as follows: exponentially growing PC cells were serum-starved for 24 hours with basal incubation medium. Serum-starved cells were then seeded at a density of 25×10^3 cells/well in the upper insert of the invasion chamber. The lower chamber received the chemoattractant medium, which consisted of 90% basal RPMI medium and 10% conditioned medium from the cultures of PC-3M cells expressing constitutively active Gsa protein as described in Chien, J., Wong, E., Nikes, E., Noble, M. J., Pantazis, C. G., and Shah, G. V. (1999) Oncogene 18(22), 3376-3382 which is incorporated herein by reference. The incubations were carried out for 24 hours, after which the basement matrix protein or Matrigel™ (along with non-invading cells) was scraped off with cottonswabs, and the outer side of the insert was fixed and stained using hemaoxylin staining sold under the trademark Diff Quick (Dade Behring Diagnostics, Aguada, PR). The number of cells migrated on the outer bottom side of the insert were counted under the microscope in six or more randomly selected fields (magnification: 100×). The final results were expressed as mean+/−SEM number of invaded cells per 100× field. Each experiment was done in triplicates, and the experiment was repeated twice. […] To correct this, the growth rate was determined for PC-3M cells under identical culture conditions. 25×10^3 cells were plated at hourly intervals in six-well dishes and cultured for 1-24 hours. Mean percent increase in the cell number was determined by counting the net increase in the number of cells. […] This correction was applied to the results of invasion assays.

[4] = test system: PC-3M cells over expressing CT; experiment: Xenograft testing, orthotopic implant in athymic nude mice; type: in vivo; conditions: compound 1 200 μg/day, compound 2 40 μg/day; for average life-expectancy: intraperitoneally every other day, untreated 54 days, ± SEM; for tumor growth in secondary organs (metastases): intraperitoneally, FIG. 5
Text: In vivo xenograft testing was done on athymic nude mice to measure the anti-cancer effect of various compounds. PC-3M prostate cells were used that contain a red fluorescence protein from gene transfer to facilitate tracking of cancer cells. The red fluorescence protein used is described in Yang, M., Baranov, E., Wang, J. W., Jiang, P., Wang, X., Sun, F. X., Bouvet, M., Moossa, A. R., Penman, S., and Hoffman, R. M. (2002) Proc Natl Acad Sci U S A 99(6), 3824-3829, which is incorporated herein by reference. 1×10^5 PC-3M cells over expressing CT were implanted in 30 day old mice orthotopically, that is the prostate cancer cells were implanted into the prostate of the mice. The cells were then allowed to grow in their native environment allowing for metastasis into other organs such as the lymph nodes, bones and lungs. The mice, other than the control mice were injected intraperitoneally every other day. Dosing rates were 200 μg/day or 5 μg/g body weight/day-intrapertonieally for compound 1 and 40 μg/day or 1 μg/g body weight/day-intraperitoneally for compound 2. Tumor growth was measured by fluorescence imaging and the mice were sacrificed upon signs of morbidity such as immobility and high tumor burden.

prostate tumors = experiment: Testing of transgenic LPB-Tag mice that spontaneously form prostate tumors; type: in vivo; conditions: 80 μg/week intraperitoneally
Text: In vivo testing was done on transgenic mice that spontaneously form prostate tumors to measure the anti-cancer effect of compound 2. The mice used were LPB-Tag mice of the type described in Kasper, S., and Smith, J. A., Jr. (2004) J Urol 172(1), 12-19 which is incorporated herein by reference. The mice were originally developed by Dr. Robert Matusik of Vanderbilt University. LPB-Tag mice are generated by the targeted expression of SV40 large T-antigen (Tag) in the prostate using androgen-regulated, prostate-specific large probasin (LPB) gene promoter. The mice develop PIN lesions as well as extensive prostate adenocarcinomas in adulthood. The mice had their p53 gene knocked out and T-antigen selectively targeted to the prostate. Therefore, the mice begin to develop prostate tumors spontaneously as they approached the age of 50 days (adulthood), the tumors gradually grew and became very large at the age of 90 days. Mice were sacrificed around day 90 and their prostates and other organs were harvested for studying tumor characteristics and histology. Compound 2 was delivered at a dosing of 80 μg/week or 2 μg/g body weight/week-intraperitoneally. […] These tests indicate that compounds of this invention may be used as a chemopreventive for high risk patients.

PC-3M cells [5] = experiment: Growth rate of PC-3M cells by cell counting (correction for invasion assay); type: cell-based; conditions: vehicle control=1; cultured 1-24 hours
Description: Invasion assays were used to identify compounds with antimetastatic activity. Invasion assays were performed on a control group, a calcitonin (CT) stimulated group, a drug treated group and a group that was both drug treated and CT stimulated. The assay employed two-compartmented Boyden invasion chambers sold under the trademark MATRIGEL. The assay conditions were as follows: exponentially growing PC cells were serum-starved for 24 hours with basal incubation medium. Serum-starved cells were then seeded at a density of 25×10^3 cells/well in the upper insert of the invasion chamber. The lower chamber received the chemoattractant medium, which consisted of 90% basal RPMI medium and 10% conditioned medium from the cultures of PC-3M cells expressing constitutively active Gsa protein as described in Chien, J., Wong, E., Nikes, E., Noble, M. J., Pantazis, C. […] The number of cells migrated on the outer bottom side of the insert were counted under the microscope in six or more randomly selected fields (magnification: 100×). The final results were expressed as mean+/−SEM number of invaded cells per 100× field. […] To correct this, the growth rate was determined for PC-3M cells under identical culture conditions. […] Mean percent increase in the cell number was determined by counting the net increase in the number of cells. […]

Row | Molecule | dose until which no cytotoxicity [1] [µM] | disaggregation and migration of cells from spheroids ([1]; 50 μM) | effective dose range ([1]; multiple doses, distances migrated by the cells) [µM] | rate of CT stimulated cell proliferation (PC-3M cells [2]; 50 μM, 24 hours, CT stimulated, FIG. 1) | rate of baseline cell proliferation (PC-3M cells [2]; 50 μM, 24 hours, baseline (no CT), FIG. 1) | dosage rate until which no cytotoxic effect on PC-3M cells (PC-3M cells [2]; PC-3M cells) [µM] | baseline invasion (PC-3M cells [3]; 50 μM, no CT) | CT-stimulated invasion (PC-3M cells [3]; 50 μM, CT 50 nM) | average life-expectancy [4] [days] | tumor growth in secondary organs (metastases) [4] | increased survival (prostate tumors) | decrease of tumor size measured at necropsy compared to diluents treated mice (prostate tumors; sacrificed around day 90) [%] | invasion of PC-3M cells (PC-3M cells [3]; CT 50 nM) | relative CT-induced increase in cell number, pooled results of all time points (PC-3M cells [5])
1 | O=C1NC(=O)/C(=C/c2ccc(O)cc2)N1 [compound 1, (Z)-5-(4-hydroxybenzylidene)imidazolidine-2,4-dione] | ≥ 500 | did not disaggregate or migrate | 25 to 200 | moderate but significant decline | moderate but significant decline | ≥ 500 | did not affect baseline invasion | almost abolished CT-stimulated invasion | 61.44 | completely prevented tumor growth in most secondary organs | – | – | – | –
2 | CCSc1ccc(/C=C2\NC(=O)NC2=O)cc1 [compound 2, (Z)-5-(4-S-ethylbenzylidene)imidazolidine-2,4-dione] | – | – | – | – | – | – | – | – | 66 ± 1 | completely prevented tumor growth in most secondary organs | at least 1 week | 62 | – | –
3 | calcitonin (CGNLSTCMLGTYTQDFNKFHTFPQTAIGVGAP; ends and bridges not checked; cysteine pairing not given here; UniProt P01258 85-116, looked up) [CT, calcitonin (CT), used to stimulate proliferation, invasion and metastasis of PC-3M cells, reference compound] | – | – | – | – | – | – | – | – | – | – | – | – | significantly increased | 1.19
